Laboratory results reported in publication PMC3758303 (PLoS ONE, 2013).

Legend:
[1] = test system: genome-length HCV-RNA (1B-4 strain of genotype 1b) replication in HuH-7-derived 1B-4R cells; assay: 1B-4R RL assay; format: cell-based; conditions: Hepatitis C virus, 1B-4R assay, HuH-7, HCV strain 1B-4, 72 hrs
Procedure: (§1) RSc and D7 cells were derived from the cell lines HuH-7 and Li23, respectively, were cultured as described previously, [29]. HuH-7-derived OR6 [13], AH1R [30], and 1B-4R [Ikeda et al., submitted] cells harboring genome-length HCV-RNA and HuH-7-derived polyclonal sOR [31], and RSc-JRN/35B [Ikeda et al., submitted] cells harboring an HCV subgenomic replicon were cultured with medium in the presence of G418 (0.3 mg/ml; Geneticin, Invitrogen, Carlsbad, CA) as described previously. Li23-derived ORL8 [20], ORL11 [20], 1B-4RL [Ikeda et al., submitted], and KAH5RL [Ikeda et al., submitted] cells harboring genome-length HCV-RNA were maintained with medium in the presence of G418 (0.3 mg/ml) as described previously. Li23-derived polyclonal sORL8 and sORL11 cells harboring an HCV replicon, which were established by the transfection of ORN/3-5B/QR,KE,SR RNA into the cured OL8 and OL11 cells, respectively, were also cultured with medium in the presence of G418 (0.3 mg/ml) as described previously. Cured cells, from which the HCV-RNA had been eliminated by IFN treatment, were also maintained with medium in the absence of G418 as described previously. […] Therefore, when HCV-RNA is excluded from the cells or when its level is decreased, the cells are killed in the presence of G418. […]
(§2) The SI value of each reagent was determined by dividing the CC50 value by the EC50 value.

[2] = test system: genome-length HCV-RNA (O strain of genotype 1b) replication in Li23-derived ORL11 cells; assay: ORL11 RL assay; format: cell-based; conditions: Hepatitis C virus, 72 hrs
Procedure: as §1, §2

[3] = test system: HCV subgenomic replicon RNA (O strain) replication in HuH-7-derived polyclonal sOR cells; assay: sOR RL assay; format: cell-based, hepatitis C virus; conditions: HuH-7, subgenomic replicon
Procedure: RSc and D7 cells were derived from the cell lines HuH-7 and Li23, respectively, were cultured as described previously, [29]. HuH-7-derived OR6 [13], AH1R [30], and 1B-4R [Ikeda et al., submitted] cells harboring genome-length HCV-RNA and HuH-7-derived polyclonal sOR [31], and RSc-JRN/35B [Ikeda et al., submitted] cells harboring an HCV subgenomic replicon were cultured with medium in the presence of G418 (0.3 mg/ml; Geneticin, Invitrogen, Carlsbad, CA) as described previously. Li23-derived ORL8 [20], ORL11 [20], 1B-4RL [Ikeda et al., submitted], and KAH5RL [Ikeda et al., submitted] cells harboring genome-length HCV-RNA were maintained with medium in the presence of G418 (0.3 mg/ml) as described previously. Li23-derived polyclonal sORL8 and sORL11 cells harboring an HCV replicon, which were established by the transfection of ORN/3-5B/QR,KE,SR RNA into the cured OL8 and OL11 cells, respectively, were also cultured with medium in the presence of G418 (0.3 mg/ml) as described previously. Cured cells, from which the HCV-RNA had been eliminated by IFN treatment, were also maintained with medium in the absence of G418 as described previously. […] Therefore, when HCV-RNA is excluded from the cells or when its level is decreased, the cells are killed in the presence of G418.
RL assay was performed as described previously, [24]. Briefly, the cells were plated onto 24-well plates (2×10^4 cells per well) in triplicate and then treated with each reagent at several concentrations for 72 hrs. After treatment, the cells were subjected to luciferase assay using the RL assay system (Promega, Madison, WI). The experiments were performed at least in triplicate. From the assay results, the 50% effective concentration (EC50) of each reagent was determined.
as §2

[4] = test system: genome-length HCV-RNA (AH1 strain of genotype 1b) replication in HuH-7-derived AH1R cells; assay: AH1R RL assay; format: cell-based; conditions: Hepatitis C virus, HuH-7, HCV strain AH1, 72 hrs
Procedure: as §1, §2

[5] = test system: HCV-JFH-1 strain (genotype 2a) in Li23-derived D7 cells; assay: JFH-1 reporter assay system, D7 cells; format: cell-based, hepatitis C virus; conditions: D7 cells inoculated with JR/C5B/BX-2 supernatant, RL assay
Procedure: HCV infection was performed as described previously. RSc and D7 cells were inoculated with supernatant from RSc cells replicating JR/C5B/BX-2 [29].
Figure 2 Characterization of anti-HCV activities of N-89 and N-251. (A) Schematic gene organization of authentic HCV-RNA (HCV-O/RLGE). The positions of four adaptive mutations - Q1112R, P1115L, E1202G, and K1609E - are indicated by a black star. (B) N-89 and N-251 inhibited authentic HCV-RNA replication. The cells harboring HCV-O/RLGE RNA [19] were treated with N-89 (left panel) and N-251 (right panel) for 72 hrs, followed by real-time LightCycler PCR (black circles in the upper panel) and WST-1 assay (open triangles in the upper panel). The relative value (%) calculated at each point, when the level in non-treated cells was assigned as 100%, is presented here. Data are expressed as the means±standard deviation of triplicate assays. Western blot analysis (lower panels) was performed as described in Fig. 1B. […]
We next examined whether N-89 and N-251 worked in an HCV production system using HCV-JFH-1 strain (genotype 2a). […] To clarify whether anti-HCV activity depends on the difference of genotype or assay model, we evaluated the activities of N-89 and N-251 using RSc-JRN/35B [Ikeda et al., submitted] cells harboring a subgenomic HCV-JFH-1 replicon as an additional assay.

[6] = WST-1 cell proliferation assay, sORL11 cells; format: cell-based; conditions: human
Procedure: (§3) The WST-1 cell proliferation assay was performed as described previously. Briefly, The cells were plated onto 96-well plates (1×10^3 cells per well) in triplicate and then treated with each reagent at several concentrations for 72 hrs. After treatment, the cells were subjected to the WST-1 cell proliferation assay (Takara Bio, Otsu, Japan) according to the manufacturer’s protocol. This assay is based on the enzymatic cleavage of the tetrazolium salt WST-1 to formazan by cellular mitochondrial dehydrogenases present in viable cells. Therefore, there are […] the value of the WST-1 assay becomes zero. The experiments were performed at least in triplicate. From the assay results, the 50% cytotoxic concentration (CC50) of each reagent was determined.

[7] = WST-1 cell proliferation assay, OR6 cells; format: cell-based; conditions: human
Procedure: as §3

Row | Compound | EC50 [1] | EC50 [2] | EC50 ([3]; Hepatitis C virus, Huh-7, 72 h) | EC50 ([3]; 72 hrs) | EC50 [4] | anti-HCV activity for the HCV-JFH-1 strain [5] | CC50 at 72 h [6] | CC50 at 72 h [7]
1 | OCCCCCCC1COOC2(CCCCCCCCCCC2)OOC1 [N-251, 6-(1,2,6,7-tetraoxaspiro[7.11]nonadec-4-yl)hexan-1-ol] | 980 nM | 59 nM | < 1000 nM | 690 nM | 140 nM | did not show anti-HCV activity | 3100 nM | 3000 nM
2 | C1CCCCCC2(CCCCC1)OOCCCOO2 [N-89, 1,2,6,7-Tetraoxaspiro[7.11]nonadecane] | 420 nM | 45 nM | < 1000 nM | 580 nM | 25 nM | did not show anti-HCV activity | 1700 nM | 9000 nM
